In patent US12083109B2, “Neurokinin antagonists and uses thereof” (California Institute of Technology, priority 2017, dated 2024):
Entries after “also recorded” stand apart in the source; their conditions may differ.

Columns and labels:
[1] = target: T1, Nk3R (Mus musculus, UniProt P47937); assay: Shock reactivity (footshock) after tone test, osanetant; format: in vivo; parameters: from tissue; host or cells: Living mice (wild-type C57Bl6/N males, Charles River)
T1 sequence (P47937 1-452): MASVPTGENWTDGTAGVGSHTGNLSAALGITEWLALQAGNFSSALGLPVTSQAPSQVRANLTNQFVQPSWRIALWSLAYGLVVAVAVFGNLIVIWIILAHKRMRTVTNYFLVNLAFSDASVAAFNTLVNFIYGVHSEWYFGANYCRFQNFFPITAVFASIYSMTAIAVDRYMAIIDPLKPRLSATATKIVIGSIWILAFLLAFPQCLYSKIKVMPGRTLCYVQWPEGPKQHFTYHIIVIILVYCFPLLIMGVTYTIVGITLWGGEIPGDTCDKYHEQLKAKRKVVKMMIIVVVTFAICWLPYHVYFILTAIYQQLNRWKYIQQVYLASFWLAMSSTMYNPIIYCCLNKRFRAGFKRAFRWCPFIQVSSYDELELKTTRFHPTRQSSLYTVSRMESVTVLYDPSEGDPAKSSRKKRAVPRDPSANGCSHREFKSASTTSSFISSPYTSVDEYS
Description: The protocol for tone trace fear conditioning was performed as previously described (Cushman et al., 2014; incorporated by reference in its entirety) using fear conditioning boxes previously described in detail (Haubensak et al., 2010; Kunwar et al., 2015; incorporated by reference in their entirety). Briefly, mice were transported in squads of four on a white cart to a novel behavioral testing room containing 4 sound-attenuating fear-conditioning chambers (Med Associates). This “training context” was comprised of flat grid flooring (wired to a shock generator and scrambler for footshock delivery, Med Associates), houselights, and the presence of an internal fan for background noise. Chambers were sprayed with 70% Simple Green solution on the underlying chamber pan to generate a unique contextual scent and chambers were cleaned with 70% EtOH between squads. Trace fear conditioning consisted of a 3 minute baseline period followed by 3 tone-shock trials consisting of a 20 second tone conditional stimulus (CS; 75 dB, 2800 Hz), a 20 second trace interval and a 2 second footshock unconditional stimulus (US; 0.7 mA). The inter-trial interval (ITI) between trials was 60 seconds. Mice remained in the chambers an additional 60 seconds before being transported back to the vivarium. The following day, mice were transported in fresh cardboard boxes to a novel behavioral testing room consisting of 4 distinct fear-conditioning boxes to test for tone fear. The “test context” consisted of the houselights and fan turned off, uneven grid flooring, a 1% acetic acid scent and a black plastic insert used to generate a triangular roof. Testing was performed identical to training with the exception that shocks were omitted from test trials to allow for behavior assessment to the tone. A single shock was administered in the last minute of testing to assess activity burst responding to the shock. This allowed assessment of reactivity to the shock under our various manipulations performed during testing without disrupting fear acquisition by performing manipulations during training. All experimental manipulations and data shown herein were performed during the test phase of fear conditioning (training data not shown). Training and testing context were counterbalanced across mice. Freezing behavior during the baseline period as well as during each tone presentation (“during”) and trace interval (“post”) were assessed as previously described (Zelikowsky et al., 2014; incorporated by reference in its entirety) using automated near-infrared video tracking equipment and computer software (VideoFreeze, Med Associates). Shock reactivity (motion, arbitrary units) was measured during the 2 second shock US as well as the 3 seconds immediately following.
Mice were administered the Nk3R antagonist osanetant (Axon Medchem, Axon 1533) either systemically or intra-brain region. Osanctant was dissolved in saline with 0.1% Tween 20 (vehicle). […] For microinfusions, guide cannulas were removed from mice and replaced with injector cannulas (Plastics One), which protruded 0.5 mm from the tip of the guide cannula. Injectors were attached to 5 μl Hamilton syringes with PE tubing (Plastics One) and mounted on a microinfusion pump (Harvard Apparatus) for controlled infusion of osanetant (0.3 μl vehicle with 375 ng dose per site injected over 6 minutes). […]

[2] = target: T1, Nk3R; assay: Acoustic startle response, osanetant; format: in vivo; parameters: from tissue; host or cells: Living mice (wild-type C57Bl6/N males, Charles River); settings: SIS mice; acute systemic osanetant; listed as Osanetant
Description: Mice were administered the Nk3R antagonist osanetant (Axon Medchem, Axon 1533) either systemically or intra-brain region. Osanctant was dissolved in saline with 0.1% Tween 20 (vehicle). For systemic administration mice received an intraperitoneal (i.p.) injection (5 mg/kg) 20 minutes prior to behavioral testing. For microinfusions, guide cannulas were removed from mice and replaced with injector cannulas (Plastics One), which protruded 0.5 mm from the tip of the guide cannula. Injectors were attached to 5 μl Hamilton syringes with PE tubing (Plastics One) and mounted on a microinfusion pump (Harvard Apparatus) for controlled infusion of osanetant (0.3 μl vehicle with 375 ng dose per site injected over 6 minutes). For experiments using systemic administration of clozapine-N-oxide (CNO), CNO (Enzo Life Sciences-Biomol, BML-NS105-0005) was dissolved in saline (9 g/L NaCl) and injected (i.p.) at 5 mg/kg for hM4DREADD silencing or 2 mg/kg for hM3DREADD activation 20 minutes prior to behavioral testing. CNO was also administered chronically in drinking water (0.5 mg CNO/100 ml water).

Q: Which results are given for `CC(=O)N(C)C1(c2ccccc2)CCN(CCC[C@]2(c3ccc(Cl)c(Cl)c3)CCCN(C(=O)c3ccccc3)C2)CC1` [osanetant, N-(1-{3-[(3R)-1-benzoyl-3-(3,4-dichlorophenyl)piperidin-3-yl]propyl}-4-phenylpiperidin-4-yl)-N-methylacetamide]?
A: SIS-induced increased shock reactivity ([1]; SIS mice, osanetant 5 mg/kg i.p. 20 min before test): blocked; SIS-induced increase in shock reactivity ([1]; osanetant daily during two-week isolation, tested off-drug): a trend to protection; also recorded: reduced, but not significantly; reactivity to footshock (SIS-enhanced) ([1]; osanetant injection into CeA): reduced; also recorded: blocked; responses to the footshock ([1]; osanetant microinfusion into DMH): had no effect; shock reactivity ([1]; osanetant microinfusion into dBNSTa): no effect; SIS-induced enhanced acoustic startle responding [2]: blocked; also recorded: attenuated
